Laboratory results as given in patent US20160011177A1, “SCREENING METHOD FOR THERAPEUTIC AGENTS FOR CHARCOT-MARIE-TOOTH DISEASE AND SELF-DIFFERENTIATION MOTOR NEURONS USED THEREFOR” (Samsung Life Public Welfare Foundation, priority 2013, published 2016).
“Also recorded” adds a separate entry of the source.

Legend:
CMT1A transgenic mouse = conditions: cited from earlier work
Pmp22 mRNA = conditions: transgenic mouse; cited from earlier work
HSP27 S135F-MN = test: Moving mitochondria in motor neuron axons, microfluidic culture; type: cell-based, human
Text: (§1) To use the neurons differentiated from CMT patient originated iPSCs as the CMT drug efficiency test model, moving mitochondria was investigated over the treatment of tubastatin A, the histon deacetylase 6 (HDAC6) inhibitor, through microfluidic culture, as shown in FIG. 13. And the axonal transport efficiency of motor neurons (CMT 2F-MN) was confirmed (FIG. 13).
(§2) Particularly, the CMT-2F-MN or WA09_MN obtained in Example <3-1> was separated as single cells by using accutase, which were then inoculated in microchannel plates (provided by Dr. Mok, Seoul National University, Korea; Park J W et al., Nat Protoc 2006; 1: 2128-2136) at the density of 1.0×10^5 cells/plate, followed by culture in neurobasal/B27 for 10 days. After axons were fully grown through micrometer-sized grooves and stretched to the opposite compartment, the processed motor neurons were transfected with mito-dsRED2 by using lipofectamine 2000 (Invitrogen, USA). Within 2 days from the transfection, 5˜10 μM tubastatin A was treated to the medium, followed by culture for 6 hours. Imaging of mitochondria was performed by using fluorescent microscope at the speed of 121 snaps/2 min. Moving velocity of the motor neuron was measured by using ImageJ and Kymograph.

HSP27 P182L-MN = test: as above; type: cell-based, human
Text: as §1, §2

WA09_hESC-MN = test: as above; type: cell-based, human; conditions: 6 hours
Text: as §1, §2

CMT 2F-MN = test: α-tubulin acetylation in motor neurons (immunostaining, Western blotting); type: cell-based, human; conditions: 5 μM tubastatin A, 12 hours, versus non-treated and normal control WA09_MN
Text: To use the neurons differentiated from CMT patient originated iPSCs as the CMT drug efficiency test model, the recovery of axonal transport according to the treatment of tubastatin A, the histon deacetylase 6 (HDAC6) inhibitor, was investigated. CM2 subtype has heterogeneity in CMT causing gene, but nevertheless it causes malfunction in axonal transport system in many patients (Gentil B J and Cooper L, Brain Res Bull 2012; 88: 444-453). Therefore, the axonal transport efficiency of CMT 2F-MN was investigated by measuring the level of α-tubulin acetylation which was reported previously to be associated with the interaction between the vehicle and the motor protein (Westermann S and Weber K. Nat Rev Mol Cell Biol 2003; 4: 938-947).
Particularly, the CMT-2F-MN or WA09_MN differentiated by the same manner as described in Example <3-1> was treated with 5 μM tubastatin A, followed by culture for 12 hours. Then, the cells were immunostained with α-tubulin and acetylated α-tubulin by the same manner as described in Example <2-3>. […]
The CMT-2F-MN or WA09_MN treated with 5 μM tubastatin A was suspended in RIPA lysis buffer (pH 8.0) containing 150 mM NaCl, 1.0% NP-40, 0.5% sodium deoxycholate, 0.1% sodium dodecylsulfate, and 50 mM Tris. […] The band density was analyzed by using UN-SCAN-IT gel software in order to (Silk Scientific, USA) measure the level of α-tubulin acetylation. […]

myelinated nerve fibers = conditions: cited from earlier work
[1] = CMT 2F-MN with S135F mutation, tubastatin A treated versus non-treated
[2] = CMT 2F-MN with P182L mutation, tubastatin A treated versus non-treated

For `O=C1O[C@H]([C@@H](O)CO)C(O)=C1O` [Ascorbic acid], the “phenotype of hereditary motor and sensory neuropathies” value (CMT1A transgenic mouse) is listed as “improved”.

In the case of `CN(C)c1ccc([C@H]2C[C@]3(C)[C@@H](CC[C@]3(O)CCCO)[C@@H]3CCC4=CC(=O)CCC4=C32)cc1` [onapristone], the “over-expression of Pmp22 mRNA” value (Pmp22 mRNA) is given as “suppressed”, the “phenotype of hereditary motor and sensory neuropathies” value (Pmp22 mRNA) is given as “improved” and the side effects (Pmp22 mRNA) is given as “without side effects”.

For `CN1CCc2c(c3ccccc3n2Cc2ccc(C(=O)NO)cc2)C1` [tubastatin A], the “moving velocity of mitochondria, in words” value (HSP27 S135F-MN; [1]) was “significantly increased”, the “transport frequency of mitochondria, in words” value (HSP27 S135F-MN; [1]) was “significantly increased” and the “Moving velocity of mitochondria” value (HSP27 S135F-MN; HSP27 S135F-MN, 5 μM tubastatin A treated, 6 hours) was 0.2498 ± 0.02357 μm/sec. For the same molecule, the “moving velocity of mitochondria, in words” value (HSP27 P182L-MN; [2]) was “significantly increased”, the “transport frequency of mitochondria, in words” value (HSP27 P182L-MN; [2]) was “significantly increased” and the “Moving velocity of mitochondria” value (HSP27 P182L-MN; HSP27 P182L-MN, 5 μM tubastatin A treated, 6 hours) was 0.2599 ± 0.05186 μm/sec. The “Migration of mitochondria (number of moving mitochondria by total number)” value (HSP27 P182L-MN; HSP27 P182L-MN, 10 μM tubastatin A treated, 6 hours) was 44.61 ± 10.450%, the “Moving velocity of mitochondria” value (WA09_hESC-MN; 5 μM tubastatin A treated) was 0.2446 ± 0.03859 μm/sec and the “Migration of mitochondria (number of moving mitochondria by total number)” value (WA09_hESC-MN; 10 μM tubastatin A treated) was 39.31 ± 3.831%. For the same molecule, the “level of α-tubulin acetylation” value (CMT 2F-MN) was “increased/recovered back to that of the normal control group; also recorded: significantly increased”.

B1: neurotrophin-3 (protein, UniProt P20783 139-257, looked up)
Neurotrophin-3: YAEHKSHRGEYSVCDSESLWVTDKSSAIDIRGHQVTVLGEIKTGNSPVKQYFYETRCKEARPVKNGCRGIDDKHWNSQCKTSQTYVRALTSENNKLVGWRWIRIDTSCVCALSRKIGRT
notes: neurotrophin reported to increase myelinated nerve fibers
In the case of B1, the myelinated nerve fibers (myelinated nerve fibers) is listed as “increased” and the sensor related symptoms (myelinated nerve fibers) is listed as “improved”.
